Positions count from the first letter of the chain named.
Assays:
Assay in all cases: yeast uptake assay, UPLC of cell extract versus empty vector
Type in all cases: cell-based
Details in all cases: fed as 200 uM mixture of genistein, daidzein and glycitein; PBS pH 7.4, 30 °C, overnight/24 h; whole yeast cells
GmMATE1^C08 = molecular target: T1, GmMATE1^C08 (Glycine max, UniProt I1N8G7)
T1 construct: gene LOC100775619; full-length CDS in pGBKT7 without GAL4 BD, ADH1 promoter, in yeast Y2HGold; no tag stated
T1 sequence (I1N8G7 1-495): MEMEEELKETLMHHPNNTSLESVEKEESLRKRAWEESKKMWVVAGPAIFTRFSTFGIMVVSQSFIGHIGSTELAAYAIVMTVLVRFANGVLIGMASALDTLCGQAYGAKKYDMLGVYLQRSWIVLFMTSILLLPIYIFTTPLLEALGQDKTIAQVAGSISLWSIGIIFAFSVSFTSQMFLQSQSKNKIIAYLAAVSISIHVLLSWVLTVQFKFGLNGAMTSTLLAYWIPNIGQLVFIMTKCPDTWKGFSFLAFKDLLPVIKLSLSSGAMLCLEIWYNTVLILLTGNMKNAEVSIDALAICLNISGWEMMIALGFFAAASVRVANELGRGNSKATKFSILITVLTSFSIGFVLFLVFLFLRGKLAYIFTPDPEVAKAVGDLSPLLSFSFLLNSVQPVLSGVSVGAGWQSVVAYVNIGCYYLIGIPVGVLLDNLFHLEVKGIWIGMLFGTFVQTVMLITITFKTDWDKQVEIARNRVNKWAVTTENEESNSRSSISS

GmMATE1^W05 = molecular target: T2, GmMATE1^W05 (Glycine soja, UniProt A0A191UP88)
T2 construct: gene MATE1; full-length CDS in pGBKT7 without GAL4 BD, ADH1 promoter, in yeast Y2HGold; no tag stated
T2 sequence (A0A191UP88 1-495): T1 sequence (I1N8G7 1-495) with V206L, N330S

GmMATE2^W05 = molecular target: T3, GmMATE2^W05 (Glycine soja, UniProt A0A191UP89)
T3 construct: gene MATE2; full-length CDS in pGBKT7 without GAL4 BD, ADH1 promoter, in yeast Y2HGold; no tag stated
T3 sequence (A0A191UP89 1-496): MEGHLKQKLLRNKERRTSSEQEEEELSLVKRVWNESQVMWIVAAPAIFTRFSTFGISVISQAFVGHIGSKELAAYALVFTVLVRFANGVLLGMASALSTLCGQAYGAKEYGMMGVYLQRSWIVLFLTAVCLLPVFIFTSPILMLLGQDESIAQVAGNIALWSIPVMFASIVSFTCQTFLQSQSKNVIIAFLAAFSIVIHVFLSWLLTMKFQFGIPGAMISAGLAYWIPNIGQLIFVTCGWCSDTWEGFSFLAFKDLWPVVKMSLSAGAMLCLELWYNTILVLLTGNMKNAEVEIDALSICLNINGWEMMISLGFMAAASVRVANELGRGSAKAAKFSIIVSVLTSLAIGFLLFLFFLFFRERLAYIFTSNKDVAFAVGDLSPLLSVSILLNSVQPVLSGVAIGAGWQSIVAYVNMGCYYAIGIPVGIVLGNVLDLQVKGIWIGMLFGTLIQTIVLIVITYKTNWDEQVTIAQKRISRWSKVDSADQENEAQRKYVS

GmMATE2^C08 = molecular target: T4, GmMATE2^C08 (Glycine max, UniProt I1N8G8)
T4 construct: gene LOC100796360; full-length CDS in pGBKT7 without GAL4 BD, ADH1 promoter, in yeast Y2HGold; no tag stated
T4 sequence (I1N8G8 1-496): T3 sequence (A0A191UP89 1-496) with S483N

| SMILES | yeast uptake assay, UPLC of cell extract versus empty vector (GmMATE1^C08) | yeast uptake assay, UPLC of cell extract versus empty vector (GmMATE1^W05) | yeast uptake assay, UPLC of cell extract versus empty vector (GmMATE2^W05) | yeast uptake assay, UPLC of cell extract versus empty vector (GmMATE2^C08) |
| --- | --- | --- | --- | --- |
| O=c1c(-c2ccc(O)cc2)coc2cc(O)ccc12 [daidzein] | yeasts expressing GmMATE1 and GmMATE2 significantly accumulated more of all three metabolites | allelic forms from either the cultivated soybean C08 or the wild soybean W05 exhibited similar | allelic forms from either the cultivated soybean C08 or the wild soybean W05 exhibited similar | yeasts expressing GmMATE1 and GmMATE2 significantly accumulated more of all three metabolites |
| O=c1c(-c2ccc(O)cc2)coc2cc(O)cc(O)c12 [genistein] | yeasts expressing GmMATE1 and GmMATE2 significantly accumulated more of all three metabolites | allelic forms from either the cultivated soybean C08 or the wild soybean W05 exhibited similar | allelic forms from either the cultivated soybean C08 or the wild soybean W05 exhibited similar | yeasts expressing GmMATE1 and GmMATE2 significantly accumulated more of all three metabolites |
